Reference: ChEMBL document CHEMBL1122392, “C4-substituted 1-beta-D-ribofuranosylpyrazolo[3,4-d]pyrimidines as adenosine agonist analogues” (J Med Chem, 1983)

Legend:
Adenosine receptor = Adenosine receptor (Rattus norvegicus, UniProt P29276+P25099+P30543+P28647); assay: Displacement of [3H]CHA from rat brain adenosine receptor
[1] = biological target: Adenosine receptor (Rattus norvegicus) (UniProt P29276+P25099+P30543+P28647); assay: Displacement of [3H]CHA from rat brain adenosine receptor at 10e-4 M
Adenosine receptor (Rattus norvegicus), sequence (P25099 whole entry, looked up): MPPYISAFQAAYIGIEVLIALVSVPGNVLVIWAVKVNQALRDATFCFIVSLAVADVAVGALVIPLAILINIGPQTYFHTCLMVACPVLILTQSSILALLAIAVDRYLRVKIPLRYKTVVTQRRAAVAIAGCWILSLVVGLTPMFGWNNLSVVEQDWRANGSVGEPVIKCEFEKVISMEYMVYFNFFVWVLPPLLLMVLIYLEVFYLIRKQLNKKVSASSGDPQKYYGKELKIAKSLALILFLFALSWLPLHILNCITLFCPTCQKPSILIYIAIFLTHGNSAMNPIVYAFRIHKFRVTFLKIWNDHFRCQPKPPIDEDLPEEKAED
Adenosine receptor (Rattus norvegicus), sequence (P28647 whole entry, looked up): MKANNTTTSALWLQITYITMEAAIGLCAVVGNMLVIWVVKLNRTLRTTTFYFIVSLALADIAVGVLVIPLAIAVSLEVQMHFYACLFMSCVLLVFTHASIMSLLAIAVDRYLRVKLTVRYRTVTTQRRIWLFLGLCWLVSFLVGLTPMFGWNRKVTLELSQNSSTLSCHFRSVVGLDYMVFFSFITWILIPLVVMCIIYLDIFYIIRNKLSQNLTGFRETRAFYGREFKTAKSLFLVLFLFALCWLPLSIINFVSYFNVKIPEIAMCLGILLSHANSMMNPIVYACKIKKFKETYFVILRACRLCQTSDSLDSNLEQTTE
Adenosine receptor (Rattus norvegicus), sequence (P29276 whole entry, looked up): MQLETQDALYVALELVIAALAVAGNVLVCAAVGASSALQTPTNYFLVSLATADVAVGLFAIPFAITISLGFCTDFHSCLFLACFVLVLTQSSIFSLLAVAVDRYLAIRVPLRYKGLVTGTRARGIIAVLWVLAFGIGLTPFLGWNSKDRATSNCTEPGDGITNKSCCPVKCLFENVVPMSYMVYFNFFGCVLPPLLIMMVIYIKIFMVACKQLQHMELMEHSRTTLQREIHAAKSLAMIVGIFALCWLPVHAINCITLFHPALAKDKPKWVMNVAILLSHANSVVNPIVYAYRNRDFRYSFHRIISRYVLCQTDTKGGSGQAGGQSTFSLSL
Adenosine receptor (Rattus norvegicus), sequence (P30543 whole entry, looked up): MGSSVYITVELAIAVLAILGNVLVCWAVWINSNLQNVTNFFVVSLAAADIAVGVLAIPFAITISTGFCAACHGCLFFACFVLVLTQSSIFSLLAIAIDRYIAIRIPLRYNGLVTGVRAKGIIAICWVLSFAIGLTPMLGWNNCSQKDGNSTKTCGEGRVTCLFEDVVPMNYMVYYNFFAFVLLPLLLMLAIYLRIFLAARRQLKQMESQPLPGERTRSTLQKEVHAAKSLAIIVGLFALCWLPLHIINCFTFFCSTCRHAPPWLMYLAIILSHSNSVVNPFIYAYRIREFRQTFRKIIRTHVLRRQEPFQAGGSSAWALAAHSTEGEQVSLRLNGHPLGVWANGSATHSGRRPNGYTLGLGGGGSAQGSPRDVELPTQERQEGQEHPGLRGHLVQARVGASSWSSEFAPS

OC[C@H]1OC(n2ncc3c(NC4CCCCC4)ncnc32)[C@H](O)[C@@H]1O (stereo not given in full)
IC50 (Adenosine receptor): 20.2 µM

CCCNc1ncnc2c1ncn2C1O[C@H](CO)[C@@H](O)[C@H]1O (stereo not given in full)
IC50 (Adenosine receptor): 0.004 µM

C[C@@H](Cc1ccccc1)Nc1ncnc2c1cnn2[C@@H]1O[C@H](CO)[C@@H](O)[C@H]1O (stereo in doubt; 1)
inhibition [1]: 47%

CCCNc1ncnc2c1cnn2C1O[C@H](CO)[C@@H](O)[C@H]1O (stereo not given in full)
IC50 (Adenosine receptor): 76.5 µM

C[C@@H](Cc1ccccc1)Nc1ncnc2c1cnn2[C@@H]1O[C@H](CO)[C@@H](O)[C@H]1O (stereo in doubt)
inhibition [1]: 31%
